Assay results reported in patent publication US20210223248A1 (priority 2018, published 2021).
Where “and” joins values, the source holds several entries; their conditions need not be identical. Identical values can stand only once.

Experiments:
[1] = test system: relapsed and/or refractory CD19+ B-ALL; type: in vivo, human
[2] = test system: relapsed and/or refractory CD19+ NHL; details: human, in vivo

Row | Compound | Odds Ratio (95% CI) for MRD-negative CR ([1]; univariate, fludarabine added to cyclophosphamide-based lymphodepletion (Y)) | Estimate, univariate association with Disease-Free Survival ([1]; human, in vivo) | Estimate, univariate association with Overall Survival ([1]; human, in vivo) | Exp (Coef) = hazard ratio for DFS ([1]; human, in vivo) | Exp (−Coef) for DFS ([1]; human, in vivo) | Hazard Ratio (95% CI) for DFS ([1]; human, in vivo) | HR (95% CI) for PFS [2] | HR for PFS [2]
1 | Nc1nc(F)nc2c1ncn2[C@@H]1O[C@H](CO)[C@@H](O)[C@@H]1O [Fludarabine, fludarabine] | 0.50 (0.03-3.31) | – | – | – | – | – | – | –
2 | cyclophosphamide and fludarabine [Cy/Flu] | – | 0.2967 | 0.4349 | 0.2490 | 4.0154 | 0.2777 (0.1095-0.7042) and 0.2794 (0.1109-0.7042) | 1.92 (0.99-3.72) | 4.266
